Data taken from patent US4962113A, “Pyridinium derivatives, their production and use” (Takeda Chemical Industries, Ltd, priority 1987, dated 1990).
Where two headings read alike, the source gives them in different places.

Tests used:
[1] = tested on: PAF-induced hypotension; test: Inhibitory action on PAF-induced hypotension in rats; type: in vivo, rat (Sprague-Dawley); conditions: Rattus norvegicus, read-out: Inhibitory Rate (Lowering of Blood Pressure); for inhibition in vivo at 0.01 mg/kg / inhibition in vivo at 0.03 mg/kg / inhibition in vivo at 0.1 mg/kg: iv; for inhibition in vivo at 1 mg/kg / inhibition in vivo at 3 mg/kg / inhibition in vivo at 10 mg/kg: oral
Outline: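 Male Sprague-Dawley rats of about 250 g had cannulas placed in the femoral artery, for blood pressure recording via a pressure transducer, and in the femoral vein, for drug dosing. The hypotensive response to intravenous PAF (1 μg/kg) was measured first. Test samples were then given intravenously or orally, and PAF was given again. Percent inhibition compares the PAF-induced pressure drop (Δ mmHg) after treatment with the drop before treatment.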

[2] = tested on: platelet aggregation (PAF); test: Inhibitory action on PAF-induced rabbit platelet aggregation; type: cell-based; conditions: Oryctolagus cuniculus, read-out: inhibitory percentage (platelet aggregation)
Outline: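 Male rabbit citrated PRP, adjusted with PPP to about 500,000 platelets/μl, was stirred 2 min at 37 °C, then with test sample for 2 min before PAF addition. Aggregation was followed by aggregometry as maximum percent light transmission.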

[3] = tested on: Reversed Passive Arthus reaction; test: Reversed Passive Arthus reaction; type: in vivo, rat (Sprague-Dawley); conditions: oral, 6.25 mg/kg, one hour before antigen
Protocol: Under ether anesthesia, the hair of the back of Sprague-Dawley male rats (7-week old, about 250 g body weight) was cut, and 0.5 ml of a 5% solution of gum arabia of a test compound relative to 100 g of the body weight of the animals was orally administered (one hour before injection of antigen). An antigen, egg albumin dissolved in physiological saline (5 mg/kg) was administered through the tail vein. Immediately, 0.1 ml each of a rabbit anti-egg albumin serum (containing 6 mg protein antibody/ml) was administered intracutaneously at one spot each of left- and right-hand sides of the back of rats. Three hours later, 1 ml of physiological saline containing 1% of Evans blue was given intravenously, and 30 minutes later, the skin of the animals was excised, and the area (mm^2) of blue spots was measured. The results were compared with those of the control group, and the inhibitory ratio was determined.

Compound: CCC[n+]1cc(Br)cc(C(=O)N(CCOC(=O)NCCOC(=O)Nc2cccc3ccccc23)c2ccccc2)c1 [Production Example 10, 5-bromo-3-[N-[2-[2-(1-naphthylcarbamoyloxy)ethyl]carbamoyloxy]ethyl-N-phenyl]carbamoyl-1-propylpyridinium chloride]
- inhibition in vivo at 0.01 mg/kg ([1]; 1 hr.): 65%
- inhibition in vivo at 0.01 mg/kg ([1]; 2 hr.): 60%
- inhibition in vivo at 0.01 mg/kg ([1]; 4 hr.): 53%
- inhibition in vivo at 0.01 mg/kg ([1]; 6 hr.): 47%
- inhibition in vivo at 0.01 mg/kg ([1]; 8 hr.): 36%
- inhibition in vivo at 0.03 mg/kg ([1]; 1 hr.): 97%
- inhibition in vivo at 0.03 mg/kg ([1]; 2 hr.): 84%
- inhibition in vivo at 0.03 mg/kg ([1]; 4 hr.): 65%
- inhibition in vivo at 0.03 mg/kg ([1]; 6 hr.): 55%
- inhibition in vivo at 0.03 mg/kg ([1]; 8 hr.): 47%
- inhibition in vivo at 0.1 mg/kg ([1]; 1 hr.): 100%
- inhibition in vivo at 0.1 mg/kg ([1]; 2 hr.): 94%
- inhibition in vivo at 0.1 mg/kg ([1]; 4 hr.): 89%
- inhibition in vivo at 0.1 mg/kg ([1]; 6 hr.): 81%
- inhibition in vivo at 0.1 mg/kg ([1]; 8 hr.): 76%
- inhibition in vivo at 0.01 mg/kg ([1]; 5 min, i.v., 5 min.): 79%
- inhibition in vivo at 0.03 mg/kg ([1]; 5 min, i.v., 5 min.): 100%
- inhibition in vivo at 0.1 mg/kg ([1]; 5 min, i.v., 5 min.): 100%
- inhibition in vivo at 1 mg/kg ([1]; 1 hr.): 33%
- inhibition in vivo at 1 mg/kg ([1]; 2 hr.): 51%
- inhibition in vivo at 1 mg/kg ([1]; 4 hr.): 56%
- inhibition in vivo at 1 mg/kg ([1]; 6 hr.): 59%
- inhibition in vivo at 1 mg/kg ([1]; 8 hr.): 47%
- inhibition in vivo at 3 mg/kg ([1]; 1 hr.): 79%
- inhibition in vivo at 3 mg/kg ([1]; 2 hr.): 83%
- inhibition in vivo at 3 mg/kg ([1]; 4 hr.): 87%
- inhibition in vivo at 3 mg/kg ([1]; 6 hr.): 83%
- inhibition in vivo at 3 mg/kg ([1]; 8 hr.): 81%
- inhibition in vivo at 10 mg/kg ([1]; 1 hr.): 96%
- inhibition in vivo at 10 mg/kg ([1]; 2 hr.): 96%
- inhibition in vivo at 10 mg/kg ([1]; 4 hr.): 96%
- inhibition in vivo at 10 mg/kg ([1]; 6 hr.): 93%
- inhibition in vivo at 10 mg/kg ([1]; 8 hr.): 90%
- inhibition at 3 µM ([2]; 3 × 10^-6 M): 100%
- inhibition at 0.3 µM ([2]; 3 × 10^-7 M): 91%
- preventive ratio [3]: 57%
